Test results reported in patent US6919306B2, “Method of skin care” (Yaizu Suisankagaku Industry Co. Ltd., priority 1999, dated 2005).
Marks after values point to notes of the source that are not given here.

Legend:
[1] = system: oil and fat content of skin; experiment: Skin oil and fat content by Sebumeter SM810; format: in vivo, human; conditions: for Oil and fat content, Below left eye: NAG 1,000 mg/day oral
Method: (§1) To 22 females usually having a tendency of xeroderma and rough skin (average age: 25.5±10.7), a double blind long-term ingestion study was carried out in the following manners provided that a […] were given to a control group.
(§2) NAG-containing tablets-administered group (NAG group, n=11): Tablets prepared similarly as in Example 1 as described below (NAG amount: 200 mg/tablet), were ingested at a rate of 5 tablets/day (NAG 1,000 mg/day, as a daily dose).
(§3) The ingestion period was 8 weeks in each group. The inspection was in principle carried out just before the start of ingestion, 4 weeks after the start of ingestion, and just before the completion of ingestion (8 weeks after the start of ingestion).
The oil and fat content was measured by using Sebumeter SM810 (manufactured by Courage+Khazaka Electronic Gmbh). In use of this apparatus, a special tape which absorbs only the oil and fat content is attached to the measurement site for 30 seconds and the oil and fat content is measured by the change of light transmittance of the tape. This apparatus is known not to be affected by humidity, etc.
Measurement sites were 1 cm below the left eye, medial part of left upper arm (3 cm above the elbow), and poll (3 cm below spinous process of neck). With respect to the oil and fat content, since most subjects were scored at 0 at the left upper arm and the poll, only the site below the left eye was measured from the 2nd inspection.
In order to keep the environments for the measurements as equal as possible, a room having its internal conditions adjusted to be constant was prepared before the measurements (room temperature: 18 to 20° C., humidity: 45 to 60%), and the subjects were asked to keep in rest in this room for at least 30 minutes. Further, with respect to the makeup at the measurement site, it was in principle prohibited to put on makeup from 60 minutes before the inspection.

[2] = NAG kinetics study with 14C labelled NAG; format: in vivo; conditions: rats, single forced oral 250 mg/kg of body weight
Method: A mixture of ^14C labelled NAG (1 st-position carbon atom-labelled product: manufactured by Amasham Life Science Co.) and unlabelled NAG (the one prepared in PREPARATION EXAMPLE 1) was given to rats by single forced oral administration (250 mg/kg of body weight) for in vivo kinetics study. […] About 60% of the administered NAG was utilized as an energy source and excreted as CO2 to expiration. Further, about 20% was excreted to urine and stool.

[3] = system: females having a tendency of xeroderma and rough skin; experiment: Dermatologic examination and doctor's questions, double blind long-term ingestion study; format: in vivo, human; conditions: for Face, Cosmetic dermatitis, average score / Face, Spread of cosmetics, average score / Whole body, Desquamation, average score / Whole body, Erosion, average score / Whole body, Flushing, average score / Whole body, Papula, average score / Whole body, Pruritus, average score / Whole body, Vesicle, average score / Face, Dessication, average score / Face, Flushing, average score / General observation, average score / Whole body, Dessication, average score: NAG 1,000 mg/day oral
Method: as §1, §2
Placebo-administered group (Placebo group, n=11): Tablets prepared similarly provided that lactose was used instead of NAG, were ingested at a rate of 5 tablets/day.
as §3
In the observation of whole body, 4 ranks evaluation (0: no symptom, 1: slight, 2: medium, 3: severe) was conducted with respect to pruritus, desiccation, flushing, erosion, desquamation, papula, vesicle and tumefaction. In the observation of face, 4 ranks evaluation was similarly conducted with respect to cosmetic dermatitis, desiccation, flushing and spread of cosmetics. Further, amelioration of general symptom including the observations of the whole body and face, was evaluated as a general observation. These evaluations were conducted by a plurality of doctors designated by Japan Dermatologic Science Society. The results are shown in Table 3 (average value of each score of each group).

[4] = after 4 weeks, score 0-3, p < 0.05
[5] = after 8 weeks, score 0-3, p < 0.05

## CC(=O)N[C@H]1C(O)O[C@H](CO)[C@@H](O)[C@@H]1O (some centres unmarked) [NAG, N-acetylglucosamine]
[1]; after 4 weeks
  Oil and fat content, Below left eye: 53.0 ± 29.2
[1]; after 8 weeks, p < 0.05
  Oil and fat content, Below left eye: 40.8 ± 18.7
[1]; before ingestion
  Oil and fat content, Below left eye: 63.8 ± 42.3
[1]; NAG group, 1,000 mg/day oral, 8 weeks
  oil and fat content, change: significant decrease
[2]
  absorption after oral administration: rapidly absorbed
  share excreted to urine and stool: about 20%
  time at which average concentration of radioactivity in blood reached the maximum value: 4 h
[2]; autoradiography and tissue radioactivity
  residual transferred to tissues (e.g. cartilaginous and fatty tissues): about 20%
[3]; after 4 weeks, score 0-3
  Face, Cosmetic dermatitis, average score: 1.00
  Face, Spread of cosmetics, average score: 1.33
  Whole body, Desquamation, average score: 1.33
  Whole body, Erosion, average score: 1.00
  Whole body, Flushing, average score: 0.80
  Whole body, Papula, average score: 1.50
  Whole body, Pruritus, average score: 0.90
  Whole body, Vesicle, average score: 2.00
[3]; after 4 weeks, score 0-3, p < 0.01
  Face, Dessication, average score: 1.18**
[3]; [4]
  Face, Flushing, average score: 1.10*
  General observation, average score: 1.27*
  Whole body, Dessication, average score: 1.36*
[3]; after 8 weeks, score 0-3
  Face, Cosmetic dermatitis, average score: 1.33
  Whole body, Desquamation, average score: 1.00
  Whole body, Erosion, average score: 0.00
  Whole body, Flushing, average score: 0.40
  Whole body, Papula, average score: 1.50
  Whole body, Pruritus, average score: 0.60
  Whole body, Vesicle, average score: 2.00
[3]; [5]
  Face, Dessication, average score: 1.00*
  Face, Flushing, average score: 1.10*
  Face, Spread of cosmetics, average score: 0.83*
  General observation, average score: 1.09*
  Whole body, Dessication, average score: 1.00*
[3]; before ingestion, score 0-3
  Face, Dessication, average score: 2.00
  Face, Flushing, average score: 1.80
  Face, Spread of cosmetics, average score: 1.83
  General observation, average score: 1.82
  Whole body, Desquamation, average score: 1.33
  Whole body, Dessication, average score: 2.09
  Whole body, Erosion, average score: 2.00
  Whole body, Flushing, average score: 1.40
  Whole body, Papula, average score: 1.00
  Whole body, Pruritus, average score: 1.40
  Whole body, Vesicle, average score: 1.00
[3]; before ingestion, score 0 no symptom to 3 severe
  Face, Cosmetic dermatitis, average score: 1.00
[3]; NAG group, 1,000 mg/day oral, 8 weeks, also significant in placebo group
  symptom of whole body: "dessication": significant improvements
[3]; NAG group, 1,000 mg/day oral, 8 weeks, placebo no significance
  symptoms of face: "dessication", "flushing" and "spread of cosmetics": significant improvements
[3]; NAG group, 1,000 mg/day oral, 8 weeks, placebo no significant improvement
  general observation: significant improvements
